In patent publication US10106551B2, “Monothiol mucolytic agents” (PARION SCIENCES, INC., priority 2015, dated 2018):

Key:
[1] = DTNB assay: rate of S-S bond reduction; format: biochemical; details: for DTNB reduction rate: 22.5 μM reducing agent, 45 μM DTNB, 50 mM Tris-HCl
From the text: Thiol-containing compounds, such as the monothiol mucolytic agents described in this patent, can react with DTNB (5,5-Dithiobis(2-nitrobenzoic acid)) resulting in the cleavage of its single S—S bond. The DTNB assay serves a dual purpose in our analysis of monothiol compounds, as it can (1) be used to determine the “active concentration” of the mucolytic compounds (what amount of the compound in a reaction is able to cleave S—S bonds) and (2) to assess the rate that the compound can cleave S—S bonds. When cleaved, the resulting compound, NTB (2-nitro-5-thiobenzoate), is a colored product that is measured spectrophotometrically at an absorbance of 412 nm (Abs412). Using the molar extinction coefficient of NTB and measured maximum Abs412, the molar amount of DTNB that reacted with our mucolytic agents can be calculated. Monothiol mucolytic compounds react at a 1:1 stoichiometric ratio with DTNB (i.e. 1 mole of NTB is produced when 1 mole of DTNB is reacted with 1 mole of a monothiol reducing agent). To define the activity concentration of a compound, a final concentration of 22.5 μM mucolytic reducing agent was combined with an excess of DTNB (100 μM) in 1 mL 50 mM Tris-HCl buffer (pH 7.5). Maximum Abs412 was measured and then utilized to calculate the activity concentration. If observed activity concentrations differed from expected activity concentrations by more than 5%, the amount of the compound added to each reaction was accordingly adjusted to kinetically test the reducing rate in the next step. To determine rate of mucolytic reducing activity, 22.5 μM active reducing agent is combined with 45 μM DTNB in 1 mL 50 mM Tris-HCl buffer over a pH range (6.0-7.5). Abs412 is recorded in real time upon addition of the compound and rates were calculated using 2nd order kinetic parameters.

IL-8 = IL-8 Secretion from primary HBEs (ELISA); format: cell-based, human; details: FIG. 6B; 10 mM, apical surface of HBE cells, 24 hours
Procedure: Reducing agents were made up in 50 mM Tris-HCl buffered to pH 7.5. Each compound solution (15 μL of 10 mM compound) was added to the apical surface of primary HBEs.
IL-8 secretion was measured from the basolateral HBE media 24 hours post-dose using a ThermoScientific human IL-8 ELISA kit. Samples were diluted 1:50 and then 50 μL of each dilution was added to the ELISA plate. The samples were completed in duplicate following standard reaction conditions as outlined in the kit manual. Absorbance was measured at 450 nm. A standard curve, generated from standards with known amounts of human IL-8, was used to calculate IL-8 amounts in the unknown samples. Supernatant from mucopurlent matters (SMM) purified from cystic fibrosis sputum was used as a positive control for IL-8 secretion.

Muc5B [2] = biological target: T1, Muc5B (Homo sapiens, UniProt Q9HC84); experiment: Mucin agarose gel western blot (saliva / mucus samples); format: biochemical; details: for reducing capacity relative to 76 (Muc5B): FIG. 3; for Muc5b reduction: FIG. 4
T1 construct: Various mucin-containing substrates (e.g. saliva, harvested HBE mucus, and disease sputum) treated with our monothiol mucolytic compounds; from tissue; host or cells: saliva; harvested HBE mucus; disease sputum
Procedure: (§1) Various mucin-containing substrates (e.g. saliva, harvested HBE mucus, and disease sputum) treated with our monothiol mucolytic compounds are quenched upon completion of the treatment period with a 10-fold excess of N-ethylmaleimide in order to alkylate any remaining active compound and to prevent further mucin reduction. A 10× concentrated sample loading buffer is diluted into each sample (1×TAE/5% glycerol/0.1% SDS/Bromophenol Blue). Samples ([…]) were analyzed by electrophoresis on 0.9% agarose gels using a buffer system consisting of 1×TAE/0.1% SDS. The agarose gel was soaked for 15 min in 4×SSC (0.6 M NaCl, 60 mM Tri-sodium citrate dehydrate) containing 10 mM DTT before transferring the samples from the gel onto a nitrocellulose membrane by vacuum blotter. Unreduced and reduced Muc5B were visualized on a LiCor Odyssey imaging detection system using a polyclonal antibody directed towards Muc5B.

[3] = system: mucus on primary human bronchial epithelial (HBE) cultures; experiment: Mucus reduction on primary human bronchial epithelial (HBE) cultures, western blot; format: cell-based; details: FIG. 9; added to apical surface of HBE cultures
Procedure: as §1
Mucin reduction kinetics were assessed by western blot at the indicated times post-addition of mucolytic agents to the apical surface of HBE cultures.

[4] = Parallel Artificial Membrane Permeability (PAMPA) Assay; format: in vitro ADME; details: FIG. 5; 5 hours, room temperature
Procedure: This assay measures the permeability of small molecules across an artificial phospholipid membrane to help predict in vivo drug permeability. First, 500 μM stock solutions were made up in PBS and tested by the DTNB assay (described above) to determine compound activity concentrations. Next, 300 μL of the 500 μM compound stock solution and 200 uL PBS were added per well to the donor and acceptor plates, respectively (BD Gentest™ Pre-Coated PAMPA Plate System). The acceptor plate was then placed on top of the donor plate and allowed to incubate at room temperature for 5 hours. After incubation, the donor and acceptor plates were separated. For each reaction, samples were taken from both the acceptor and donor plates and were combined with DTNB prior to reading spectrophotometrically (maximum Abs412). For prodrug samples, 1 μL of purified esterase (porcine liver esterase; Sigma) was added per well and the samples were incubated at room temperature for 5 minutes to allow for cleavage of the pro-drug cap prior to addition of DTNB. Using the concentrations of compound identified in both the donor and acceptor plates for each sample, a compound permeability parameter was calculated following equations outlined in the BD Gentest™ Pre-Coated PAMPA Plate System Manual.

Muc5B [5] = biological target: T1, Muc5B; experiment: Muc5b reduction in COPD sputum, agarose gel western blot; format: biochemical; details: FIG. 8; spontaneously induced sputum from a patient with COPD
Procedure: as §1
An important aspect of mucolytic pro-drugs is that they must be activated in mucus on the lung surface.

[6] = Pro-Drug DTNB assay with or without esterase; format: biochemical
Procedure: The present invention provides a series of mucolytic pro-drugs (see R^6=other than H) that are activated by common enzymes that are present in the extracellular milieu (e.g., nucelotidases, phosphatases, and esterases). As a proof-of-concept, the reducing kinetics of the pro-drug compound 46 in the presence or absence of an activating esterase were tested.
This assay was designed to determine whether prodrug caps added on to our monothiol mucolytic compounds can be cleaved from the molecule. If so, the outcome would be an “active” compound that is able to reduce the S—S bond in DTNB. Similar to the activity concentration version of the DTNB assay described above, monothiol prodrugs were mixed at a final concentration of 22.5 μM with excess DTNB (100 μM final) in 1 mL 50 mM Tris-HCl buffer (pH 7.5) and maximum Abs412 was measured. In the absence of a purified hydrolytic enzyme (e.g. porcine liver esterase; Sigma), the amount of DTNB cleavage observed is an indicator for stability of the cap on the prodrug compound (i.e. if the prodrug remains intact in solution the Abs412=0). Next, 5 uL of esterase (bought as an ammonium sulfate suspension that is subsequently centrifuged to isolate the esterase and then dissolved in reaction buffer prior to assaying) is combined with excess DTNB (100 μM final) and 22.5 μM pro-drug in 1 mL 50 mM Tris-HCl buffer (pH 7.5). Cleavage of the prodrug cap can be visualized in real time via DTNB cleavage at Abs412 by the esterase-liberated monothiol molecule.

[7] = Elimination of inhaled 14C-labelled NAC from the lungs in animal studies; format: in vivo; details: inhaled or intranasal, 14C-labled NAC, administered by inhalation, animal studies (unpublished observation)

Row | IL-8 secretion (IL-8) | reducing capacity relative to 76 (Muc5B) (Muc5B [2]) | membrane permeability (PAMPA) [4] | Muc5b reduction (Muc5B [2]; 3 mM) | Muc5b reduction (Muc5B [2]; 30 mM) | Reduction Without Esterase ([6]; 22.5 μM prodrug, 100 μM DTNB, pH 7.5, no enzyme) | Reduction With Esterase ([6]; 22.5 μM prodrug, 100 μM DTNB, pH 7.5, porcine liver esterase) | DTNB cleavage without esterase ([6]; FIG. 7 middle panel) | Muc5b reduction relative to NAC (Muc5B [2]; FIG. 2, 10 mM, 5-fold lower concentration than NAC) | half-life [7] | SMILES | DTNB reduction rate ([1]; pH 6) | DTNB cleavage ([1]; FIG. 7 left panel) | duration of mucus reduction [3] | mucin reduction kinetics [3] | Muc5b reduction in sputum (Muc5B [5]) | DTNB cleavage after addition of an esterase ([6]; FIG. 7 right-hand panel) | DTNB reduction rate ([1]; pH 6.5) | DTNB reduction rate ([1]; pH 7) | DTNB reduction rate ([1]; pH 7.5) | reduction of salivary Muc5b compared to NAC (Muc5B [2]; FIG. 2, equimolar concentrations relative to NAC (50 mM))
1 | did increase IL-8 secretion | retain the reducing capacity of 76 |  |  |  |  |  |  |  |  | NCCCC[C@@H](N)C(=O)NCCOc1ccc(CS)cc1 [Compound 69, (R)-2,6-diamino-N-(2-(4-(mercaptomethyl)phenoxy)ethyl)hexanamide] | 485.93 M⁻¹ s⁻¹ |  |  |  |  |  |  |  |  | 
2 | no change in IL-8 | retain the reducing capacity of 76 | poor membrane permeability | partial reduction | full Muc5b reduction |  |  |  |  |  | OC[C@@H](O)[C@@H](O)[C@H](O)[C@@H](O)CN(CCOc1ccc(CS)cc1)C[C@H](O)[C@@H](O)[C@H](O)[C@H](O)CO [Compound 86, (2R,2′R,3R,3′R,4R,4′R,5S,5′S)-6,6′-((2-(4-(mercaptomethyl)phenoxy)ethyl)azanediyl)bis(hexane-1,2,3,4,5-pentaol)] | 160 M⁻¹ s⁻¹ | rapidly cleaves DTNB | substantially recovered 24 hours after dosing | rapid reduction of the mucus | rapidly reduced Muc5b |  |  |  |  | 
3 |  |  | poor membrane permeability |  |  | No | Yes | does not cleave DTNB |  |  | CC(=O)SCc1ccc(OCCN(C[C@H](O)[C@@H](O)[C@H](O)[C@H](O)CO)C[C@H](O)[C@@H](O)[C@H](O)[C@H](O)CO)cc1 [Compound 85, S-4-(2-(bis((2S,3R,4R,5R)-2,3,4,5,6-pentahydroxyhexyl)amino)ethoxy)benzyl Ethanethioate] |  |  | potentially longer duration of action | slower reduction kinetics | reduces the Muc5b, but with a delayed kinetic relative to 86 | metabolically converts 85 to 86, allowing it to hydrolyze DTNB |  |  |  | 
4 | did not increase IL-8 secretion |  | membrane permeable |  |  |  |  |  | greater Muc5b reduction relative to NAC |  | CC(=O)SCc1ccc(OCCN)cc1.Cl [Compound 76, S-4-(2-aminoethoxy)benzyl ethanethioate hydrochloride] | 253.2 M⁻¹ s⁻¹ |  |  |  |  |  | 654.24 M⁻¹ s⁻¹ | 1499 M⁻¹ s⁻¹ | 4633.8 M⁻¹ s⁻¹ | significantly faster and more complete reduction
5 |  |  |  |  | partial Muc5b reduction |  |  |  |  | ~20 min | CC(=O)N[C@@H](CS)C(=O)O [NAC, N-acetyl cysteine, reference compound] | 10 M⁻¹ s⁻¹ |  |  |  |  |  | 26 M⁻¹ s⁻¹ | 69 M⁻¹ s⁻¹ | 230 M⁻¹ s⁻¹ | 
